Source: paper PMC9344462 (Journal of Medicinal Chemistry, 2022)
Like-named read-outs stand apart in the source and are kept apart here.

How the values were obtained:
[1] = tested on: Mtb H37Rv; details: previous results ref 8; cited from earlier work
[2] = tested on: Mtb H37Rv; format: cell-based, Mycobacterium tuberculosis H37Rv
[3] = tested on: THP-1-derived macrophages
[4] = molecular target: PknG (kinase and rubredoxin domains) (Mycobacterium tuberculosis, UniProt P9WI73); assay: Intrinsic tryptophan fluorescence quenching; format: binding
PknG (kinase and rubredoxin domains), sequence (P9WI73 74-405): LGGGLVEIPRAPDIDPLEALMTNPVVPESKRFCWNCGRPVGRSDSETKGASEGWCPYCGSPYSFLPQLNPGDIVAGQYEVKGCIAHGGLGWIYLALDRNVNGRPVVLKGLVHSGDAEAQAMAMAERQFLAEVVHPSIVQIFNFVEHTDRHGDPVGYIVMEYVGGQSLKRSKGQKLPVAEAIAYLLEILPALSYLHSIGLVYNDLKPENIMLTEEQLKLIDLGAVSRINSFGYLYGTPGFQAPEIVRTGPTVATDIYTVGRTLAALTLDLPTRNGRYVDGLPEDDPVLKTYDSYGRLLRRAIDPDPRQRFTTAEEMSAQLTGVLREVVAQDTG

Compound: NC(=O)c1c(NC(=O)C2CC2)sc2c1CCCC2 [AX20017]
- inhibitory activity on intracellular survival of Mtb within macrophage cells [1]: very similar inhibitory activity

Compound: NC(=O)c1c(N)c(C(=O)c2ccc(F)cc2)n2ccccc12 [B1]
- Mtb H37Rv intracellular survival [2]: significant decrease
- effect on cell viability [3]: none of the compounds showed adverse effects

Compound: NC(=O)c1c(N)c(C(=O)c2cccs2)n2ccccc12 [B3]
- Kd [4]: 3.6 µM

Compound: NC(=O)c1c(N)c(C(=O)c2ccc(Cl)c(Cl)c2)n2ccccc12 [B4]
- Kd [4]: 13 µM

Compound: CC(C)c1ccc(C(=O)c2c(N)c(C(N)=O)c3ccccn23)cc1 [T1]
- Mtb H37Rv intracellular survival ([2]; 1 and 10 μM, 24 h and 48 h, […]): significant decrease
- effect on cell viability ([3]; 10 μM, 3, 24 and 48 h): none of the compounds showed adverse effects
